From PubChem BioAssay (NCI)
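96-well plates; 48 h exposure; 5 concentrations. Endpoints by linear interpolation between flanking doses. Not reached: highest tested concentration assigned. GI50 = concentration required for 50% inhibition of growth. TGI marks complete inhibition of growth.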

Columns and labels:
Experiment in all cases: inhibition of tumour cell growth, NCI panel, 48 h
HCT-116 colon = test system: HCT-116 colon
RXF 393 renal = test system: RXF 393 renal
RPMI-8226 leukemia = test system: RPMI-8226 leukemia
MDA-MB-231 breast = test system: MDA-MB-231 breast
SR leukemia = test system: SR leukemia
MCF7 breast = test system: MCF7 breast
M14 melanoma = test system: M14 melanoma
SK-MEL-5 melanoma = test system: SK-MEL-5 melanoma
HCC-2998 colon = test system: HCC-2998 colon
NCI-H522 lung = test system: NCI-H522 lung
OVCAR-4 ovarian = test system: OVCAR-4 ovarian
OVCAR-8 ovarian = test system: OVCAR-8 ovarian
786-0 renal = test system: 786-0 renal
K-562 leukemia = test system: K-562 leukemia
BT-549 breast = test system: BT-549 breast
OVCAR-3 ovarian = test system: OVCAR-3 ovarian
PC-3 prostate = test system: PC-3 prostate
SK-OV-3 ovarian = test system: SK-OV-3 ovarian
HCT-15 colon = test system: HCT-15 colon
HL-60(TB) leukemia = test system: HL-60(TB) leukemia
NCI-H23 lung = test system: NCI-H23 lung
T-47D breast = test system: T-47D breast
TK-10 renal = test system: TK-10 renal
KM12 colon = test system: KM12 colon
HOP-62 NSCLC = test system: HOP-62 NSCLC
MDA-MB-435 = test system: MDA-MB-435
A498 renal = test system: A498 renal
CCRF-CEM leukemia = test system: CCRF-CEM leukemia
SN12C renal = test system: SN12C renal
SNB-75 CNS = test system: SNB-75 CNS
NCI/ADR-RES ovarian = test system: NCI/ADR-RES ovarian
UO-31 renal = test system: UO-31 renal
OVCAR-5 ovarian = test system: OVCAR-5 ovarian
HOP-92 NSCLC = test system: HOP-92 NSCLC
EKVX NSCLC = test system: EKVX NSCLC
MOLT-4 leukemia = test system: MOLT-4 leukemia
IGROV1 ovarian = test system: IGROV1 ovarian
U251 CNS = test system: U251 CNS
NCI-H460 lung = test system: NCI-H460 lung
HT29 colon = test system: HT29 colon
LOX IMVI melanoma = test system: LOX IMVI melanoma
SK-MEL-2 melanoma = test system: SK-MEL-2 melanoma
SK-MEL-28 melanoma = test system: SK-MEL-28 melanoma
A549 NSCLC = test system: A549 NSCLC
SW-620 colon = test system: SW-620 colon
HS 578T breast = test system: HS 578T breast
SF-295 CNS = test system: SF-295 CNS
SF-539 CNS = test system: SF-539 CNS
DU-145 prostate = test system: DU-145 prostate
UACC-257 melanoma = test system: UACC-257 melanoma
COLO 205 colon = test system: COLO 205 colon
NCI-H226 lung = test system: NCI-H226 lung
SF-268 CNS = test system: SF-268 CNS
UACC-62 melanoma = test system: UACC-62 melanoma
SNB-19 CNS = test system: SNB-19 CNS
ACHN renal = test system: ACHN renal
CAKI-1 renal = test system: CAKI-1 renal

## COc1ccc(/C=N/Nc2nc(N)nc(N3CCCC3)c2C#N)cc1
HCT-116 colon
  GI50: 5.89 µM
  TGI: 22.5 µM
RXF 393 renal
  GI50: 10.2 µM
  TGI: 31.1 µM
RPMI-8226 leukemia
  GI50: 14.1 µM
  TGI: 39 µM
MDA-MB-231 breast
  GI50: 12.2 µM
  TGI: 32.9 µM
SR leukemia
  GI50: 7.72 µM
  TGI: 27.5 µM
MCF7 breast
  GI50: 15.3 µM
  TGI: 47.8 µM
M14 melanoma
  GI50: 17 µM
  TGI: 36.5 µM
SK-MEL-5 melanoma
  GI50: 19.3 µM
  TGI: 39 µM
HCC-2998 colon
  GI50: 8.59 µM
  TGI: 26.1 µM
NCI-H522 lung
  GI50: 21.9 µM
  TGI: 47.7 µM
OVCAR-4 ovarian
  GI50: 23.3 µM
  TGI: 47.4 µM
OVCAR-8 ovarian
  GI50: 7.82 µM
  TGI: 47.2 µM
786-0 renal
  GI50: 16.2 µM
  TGI: 31.2 µM
K-562 leukemia
  GI50: 13 µM
  TGI: 28.7 µM
BT-549 breast
  GI50: 19.1 µM
  TGI: 46.3 µM
OVCAR-3 ovarian
  GI50: 21.5 µM
  TGI: 40.2 µM
PC-3 prostate
  GI50: 14.7 µM
  TGI: 32.2 µM
SK-OV-3 ovarian
  GI50: 27.1 µM
  TGI: 73.3 µM
HCT-15 colon
  GI50: 17.2 µM
  TGI: 47.2 µM
HL-60(TB) leukemia
  GI50: 28.2 µM
  TGI: 86.6 µM
NCI-H23 lung
  GI50: 20.5 µM
  TGI: 48.1 µM
T-47D breast
  GI50: 31.2 µM
  TGI: 89.4 µM
TK-10 renal
  GI50: 19.4 µM
  TGI: 39.9 µM
KM12 colon
  GI50: 24.8 µM
  TGI: 70.8 µM
HOP-62 NSCLC
  GI50: 20.2 µM
  TGI: 40.9 µM
MDA-MB-435
  GI50: 24.1 µM
  TGI: 64.6 µM
A498 renal
  GI50: 12.9 µM
  TGI: 28.1 µM
CCRF-CEM leukemia
  GI50: 17.2 µM
  TGI: 49.2 µM
SN12C renal
  GI50: 18.6 µM
  TGI: 35.8 µM
SNB-75 CNS
  GI50: 23.6 µM
  TGI: 51.8 µM
NCI/ADR-RES ovarian
  GI50: 14.1 µM
  TGI: 40.2 µM
UO-31 renal
  GI50: 20.6 µM
  TGI: 38.1 µM
OVCAR-5 ovarian
  GI50: 24.3 µM
  TGI: 47 µM
HOP-92 NSCLC
  GI50: 17.8 µM
  TGI: 36.4 µM
EKVX NSCLC
  GI50: 25.9 µM
  TGI: 60.3 µM
MOLT-4 leukemia
  GI50: 17.8 µM
  TGI: 58.9 µM
IGROV1 ovarian
  GI50: 21 µM
  TGI: 44.4 µM
U251 CNS
  GI50: 17.6 µM
  TGI: 45.2 µM
NCI-H460 lung
  GI50: 16.4 µM
  TGI: 46.7 µM
HT29 colon
  GI50: 34.7 µM
  TGI: > 100 µM
LOX IMVI melanoma
  GI50: 7.39 µM
  TGI: > 100 µM
SK-MEL-2 melanoma
  GI50: 21.4 µM
  TGI: 46.1 µM
SK-MEL-28 melanoma
  GI50: 30.3 µM
  TGI: 78.2 µM
A549 NSCLC
  GI50: 13.4 µM
  TGI: 50.8 µM
SW-620 colon
  GI50: 30.4 µM
  TGI: > 100 µM
HS 578T breast
  GI50: 13 µM
  TGI: 34 µM
SF-295 CNS
  GI50: 16.8 µM
  TGI: 36 µM
SF-539 CNS
  GI50: 6.5 µM
  TGI: 21.8 µM
DU-145 prostate
  GI50: 11.8 µM
  TGI: 32 µM
UACC-257 melanoma
  GI50: 21.6 µM
  TGI: 44.7 µM
COLO 205 colon
  GI50: 37.1 µM
  TGI: > 100 µM
NCI-H226 lung
  GI50: 12.4 µM
  TGI: 30.6 µM
SF-268 CNS
  GI50: 17.7 µM
  TGI: 42 µM
UACC-62 melanoma
  GI50: 18.9 µM
  TGI: 38.4 µM
SNB-19 CNS
  GI50: 25.7 µM
  TGI: 72.5 µM
ACHN renal
  GI50: 17.4 µM
  TGI: 34.5 µM
CAKI-1 renal
  GI50: 20.9 µM
  TGI: 40.3 µM
